This series in a line: Pharmacokinetic interaction study: single oral dose of Compound (I) alone and coadministered with acarbose. In kind it is in vivo, healthy volunteers. Here is the method:
This study investigated whether administration of acarbose (A) alters the PK of co-administered Compound (I). Sixteen healthy volunteers (24-59 yo) received a single oral dose of Compound (I) (8 mg) on Day 1, followed by 7 days of repeat dosing with A (100 mg tid with meals). On Day 8, a single oral dose of Compound (I) was coadministered with the morning dose of A. PK profiles following Compound (I) dosing on Days 1 and 8 were compared. […] PK data and point estimates [95% confidence intervals] for Compound (I)+A: Compound (I) alone were analyzed.

[1] abbreviates: human, in vivo, Compound (I) alone, single oral dose 8 mg, Day 1, healthy volunteers.

2 molecules from patent publication US20020123514A1, “Treatment of diabetes with thiazolidinedione and alpha-glucosidase inhibitor” (SmithKline Beecham plc, priority 1997, published 2002) can be followed below.

Broadly, the AUC(0-inf) is total exposure, with the tail of the curve extrapolated. Usually Cmax stands for the highest concentration seen after dosing. What is called Tmax is the time from dosing to the highest level.

Consider `CN(CCOc1ccc(CC2SC(=O)NC2=O)cc1)c1ccccn1` (centres unmarked) [Compound (I), 5-[4-[2-(N-methyl-N-(2-pyridyl)amino)ethoxy]benzyl]thiazolidine-2,4-dione], for which, under setting [1], the total exposure AUC(0-inf) is 2790 ng·h/mL and the Cmax was found to be 428 ng/mL. In addition, the half-life (human, in vivo, Compound (I) alone, single oral dose 8 mg, Day 1, healthy volunteers, read-out: T½ (converted)) was 4.93 h. Also, under “human, in vivo, Compound (I) alone, single oral dose 8 mg, Day 1, median (range)”, the Tmax was found to be 1.48 h.

Turning to `C[C@H]1O[C@H](O[C@H]2[C@H](O)[C@@H](O)[C@@H](O[C@H]3[C@H](O)[C@@H](O)C(O)O[C@@H]3CO)O[C@@H]2CO)[C@H](O)[C@@H](O)[C@@H]1N[C@H]1C=C(CO)[C@@H](O)[C@H](O)[C@H]1O` (some centres unmarked) [acarbose, reference compound], the “effect on Compound (I) clearance” value (acarbose 100 mg tid coadministered, changes small, not likely clinically relevant) is listed as “slightly increase”.
